Results on two molecules are retold here after patent publication US20120107305A1, “Combination Therapy” (priority 2006, published 2012).

In one assay the test system is VEGF RTK. Conditions: cited from earlier work.
The next assay deals with tumour models. Conditions: once-daily oral administration; range of models; cited from earlier work.
For assay [1], the system named is A431 human tumour xenografts. The assay is described as follows: A431 human vulval epidermoid carcinoma xenograft model. It is filed as in vivo, female athymic mice (Swiss nu/nu). To be noted: 20 days after randomisation; ZD6474 25 mg/kg/day p.o. once daily, bevacizumab 0.5 mg/kg i.p. twice a week; nude mice. Here is the method:
Experiments were conducted on female athymic mice (Swiss nu/nu genotype, ≧6 weeks of age). A431 human tumour xenografts were established in the experimental mice by injecting 1×10^7 cells per mouse, mixed in a ratio of 1:1 with Matrigel, subcutaneously in the dorsal flank in a volume of 100 μl. Tumour volumes were assessed at least twice weekly by bilateral Vernier calliper measurements. Mice were randomised into treatment groups when the tumour volume reached 0.2-0.4 cm^3 (day 0, this was after 7 days in Example 1 below).
Tumour growth inhibition from the start of treatment was assessed by comparison of the differences in tumour volume (median and geometric mean) between control and treated groups.
Control animals (Group I) received drug vehicles alone.
For orientation: In xenograft studies the graft and the host belong to different species.

Turning to `COc1cc2c(Nc3ccc(Br)cc3F)ncnc2cc1OCC1CCN(C)CC1` [ZD6474, 4-(4-bromo-2-fluoroanilino)-6-methoxy-7-(1-methylpiperidin-4-ylmethoxy)quinazoline], in the assay on VEGF RTK, the “Inhibition of VEGF RTK” value is “potent inhibitor”. In addition, the Anti-tumour activity result in the assay on tumour models is “broad-spectrum anti-tumour activity”. The “A431 tumor volume, Geometric mean” value in assay [1] worked out at 0.149 cm^3.
For “Bevacizumab: recombinant humanised monoclonal antibody to the vascular endothelial growth factor ligand VEGF-A”, in assay [1], the “A431 tumor volume, Geometric mean” value is 0.553 cm^3.
